In patent US20260234295A1, “ULTRALOW MOLECULAR WEIGHT HEPARIN” (The University of North Carolina at Chapel Hill, priority 2022, published 2026):
“And” between values parts separate entries of the source, which are not always exact repeats. Equal entries are not always repeated.

Experiments:
Human FXa (Homo sapiens) = biological target: T1, Human FXa (Homo sapiens); assay: Anti-FXa activity, chromogenic substrate S-2765 with antithrombin; assay type: biochemical; details: for IC50: human FXa, antithrombin, S-2765, read-out: anti-FXa activity, calculated IC50 (converted); for anti-FXa activity after incubation with heparanase: after heparanase digestion, digested byproduct
T1 construct: Human FXa (Enzyme Research Laboratories, South Bend, Indiana, United States of America); purchased Enzyme Research Laboratories
Method: Human FXa (Enzyme Research Laboratories, South Bend, Indiana, United States of America) was diluted in phosphate buffered saline (PBS) to 50 U/mL. Antithrombin was diluted to 0.03 mg/mL in PBS with 1 mg/mL of bovine serum albumin (BSA). The chromogenic substrate, S-2765 (Diapharma, Westchester, Ohio, United States of America) was diluted to 1 mg/mL in water. Heparin oligosaccharides were dissolved in PBS at various concentrations (7 to 3600 ng/mL). A reaction mixture including 60 μL of antithrombin and 24 μL of a solution containing a heparin oligosaccharide was incubated at room temperature for 3 min. FXa (100 μL) was then added, which was followed after a 2 min incubation at room temperature by the addition of 30 μL of chromogenic substrate, S-2765. The absorbance of the mixture was measured at 405 nm for 5 min and plotted against reaction time. The initial reaction rate as a function of oligosaccharide concentration was used to calculate IC50.

bovine FXa = biological target: T2, bovine FXa; assay: ACTICHROME heparin activity assay, FXa inhibition with human antithrombin; assay type: biochemical; details: ACTICHROME kit, read-out: FXa activity, calculated 50% inhibitory concentration (IC50) (converted)
T2 construct: purchased BioMedica Diagnostics
Method: Data shown as mean standard deviation. Briefly, varying concentrations of HR 7-mer, enoxaparin, and fondaparinux were prepared in phosphate-buffered saline (PBS). A total of 5 microliters (μL) of each sample was added to each well, followed by the addition of 40 μL of human antithrombin for 2 minutes (min) at 37 degrees Celsius (° C.). A total of 40 μL of bovine FXa stock solution was then added and incubated for 1 min at 37° C., followed by the addition of 40 μL of chromogenic substrate sold under the tradename SPECTROZYME® FXa (BioMedica Diagnostics, Windsor, Canada). After a 5 min incubation period at 37° C., the reaction was terminated by the addition of 40 μL of glacial acetic acid. Absorbance was measured at 405 nanometers (nm) and results presented as percent inhibition of FXa activity.

[1] = system: non-occlusive venous thrombosis; assay: Murine model of non-occlusive venous thrombosis (electrolytic injury of the inferior vena cava); assay type: in vivo, C57BL/6 mice
Method: Heparin-based drug efficacy was evaluated in a preclinical mouse model of non-occlusive venous thrombosis (46). HR 7-mer was administered subcutaneously (12 μg/g, n=5) to male C57BL/6 mice (8-12 weeks of age) 1 hour prior to electrolytic injury and 24 hours after injury. Enoxaparin was administered subcutaneously (4 μg/g, n=5) 4 hours prior and 24 hours after electrolytic injury as a clinically relevant reference and an additional control group enrolled with saline vehicle administered subcutaneously (n=6). […] Venous side branches were ligated or cauterized, while posterior branches were left patent. A 25-gauge stainless steel needle, attached to a silver-coated copper wire was inserted into the exposed caudal vena cava and positioned against the anterior wall (anode). A second wire was implanted subcutaneously to complete the circuit (cathode) and a 250 μAmps current applied for 15 min. Subsequently, the needle was removed and a cotton swab held in gentle contact with the puncture site to prevent bleeding. The vena cava and associated thrombus, immediately below the renal veins to just above the bifurcation, was excised 48 hours after injury for determination of wet thrombus weight.

tail vein bleeding = assay: Tail vein transection bleeding time; assay type: in vivo, C57BL/6 mice
Method: The effect of test drug on bleeding time was assessed in a murine tail vein transection model (46). Sterile saline (n=5), HR 7-mer (12 μg/g, n=5) or enoxaparin (4 μg/g, n=7) was administered subcutaneously. Mice were anesthetized with ketamine and xylazine by intraperitoneal injection and placed on a warming mat at 37° C. Either 1 hour or 4 hours after administration of HR 7-mer or enoxaparin, respectively, the lateral tail vein was transected with a number 11 scalpel blade at a tail width of 2.3 mm and immediately submerged in PBS at 37° C. The bleeding time was determined at that instant when bleeding had ceased for 30 seconds. Animals were excluded if arterial bleeding was present.

Recombinant heparanase = biological target: T3, Recombinant heparanase (Homo sapiens, UniProt Q9Y251); assay: Incubation of heparin oligosaccharides with recombinant heparanase, HPLC and LC-MS analysis; assay type: in vitro ADME; details: overnight incubation with heparanase, 37° C., pH 6.0
T3 construct: made in house; host or cells: insect cells (baculovirus expression system)
T3 sequence (Q9Y251 158-543 limits assumed): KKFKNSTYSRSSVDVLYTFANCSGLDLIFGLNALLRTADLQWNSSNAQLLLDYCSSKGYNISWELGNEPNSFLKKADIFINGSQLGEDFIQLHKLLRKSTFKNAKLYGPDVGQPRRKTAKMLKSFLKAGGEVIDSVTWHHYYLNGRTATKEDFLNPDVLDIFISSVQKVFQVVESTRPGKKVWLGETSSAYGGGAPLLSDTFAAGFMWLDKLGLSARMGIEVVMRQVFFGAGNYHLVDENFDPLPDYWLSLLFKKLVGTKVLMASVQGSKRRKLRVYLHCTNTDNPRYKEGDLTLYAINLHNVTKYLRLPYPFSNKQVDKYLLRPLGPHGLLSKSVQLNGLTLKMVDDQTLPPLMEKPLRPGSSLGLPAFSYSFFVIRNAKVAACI
T3 sequence (Q9Y251 36-109 limits assumed): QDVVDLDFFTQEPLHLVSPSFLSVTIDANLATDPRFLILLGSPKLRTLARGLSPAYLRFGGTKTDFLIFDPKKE
Method: Recombinant heparanase was expressed in insect cells using the baculovirus expression system and purified by a heparin-Sepharose column, as previously described (40). Heparin oligosaccharides, HS 6-mer (20 μg) or HR 7-mer (20 μg), were incubated overnight at 37° C. in 250 μL of MES (50 mM, pH 6.0) in the presence of heparanase (2 μg for 1× heparanase digestion, or 20 μg for 10× heparanase digestion).
High performance liquid chromatography (HPLC) analysis was conducted with a strong anion exchange column (Propac™ PA1 column, 10 μm, 9 mm×250 mm, Thermo Fisher, Waltham, MA) using a Shimadzu Prominence UFLC20A system (Shimadzu Corporation, Columbia, MD) with a UV detector set at 310 nm. A linear gradient was used for analytical purposes and included a solvent A: 20 mM NaAcO (pH 5.0); and solvent B: 2 M NaCl with 20 mM NaAcO (pH 5.0): 0-3 min: 0-80% B, 3.1-23 min: 80-100% B at a flow rate of 2 mL/min. A total of 5-10 μg of oligosaccharides was injected per run.
LC-MS/MS analysis of heparanse digested oligosaccharides was implemented on a Vanquish Flex UHPLC system (Thermo Fisher, Waltham, MA) coupled with a TSQ Fortis triple-quadrupole mass spectrometer. The ACQUITY Glycan BEH Amide column ([…], 2.1×150 mm; Waters) was used at 60° C. The mobile phase A was 50 mM ammonium formate in water (pH 4.4) and mobile phase B was acetonitrile. […]

T1 sequence (P01008 33-464): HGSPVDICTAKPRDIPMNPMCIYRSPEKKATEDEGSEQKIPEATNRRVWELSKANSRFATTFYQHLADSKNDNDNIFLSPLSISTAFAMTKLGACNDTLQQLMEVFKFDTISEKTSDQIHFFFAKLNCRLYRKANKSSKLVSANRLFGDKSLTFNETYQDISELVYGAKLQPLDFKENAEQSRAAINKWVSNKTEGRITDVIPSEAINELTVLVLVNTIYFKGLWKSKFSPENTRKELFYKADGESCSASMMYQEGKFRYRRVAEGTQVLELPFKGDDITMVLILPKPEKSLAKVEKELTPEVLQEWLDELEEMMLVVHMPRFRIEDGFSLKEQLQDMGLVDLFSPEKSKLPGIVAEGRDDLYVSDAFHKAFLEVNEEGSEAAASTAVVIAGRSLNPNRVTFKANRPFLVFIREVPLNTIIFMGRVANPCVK
T2 sequence (P01008 33-464): as above

Compound	IC50 (Human FXa (Homo sapiens))	IC50 (bovine FXa)	reduction in thrombus formation as compared to saline vehicle ([1]; 48 hours after injury, HR 7-mer 12 μg/g SC 1 hour prior and 24 hours after, enoxaparin 4 μg/g SC 4 hours prior and 24 hours after)	Avg. IVC weight ([1]; wet thrombus weight 48 hours after injury, enoxaparin 4 μg/g, 4 hr pre, SC, HR 7-mer 12 μg/g, 1 hr pre, SC)	bleeding time (tail vein bleeding; enoxaparin 4 μg/g SC, 4 hours, HR 7-mer 12 μg/g SC, 1 hour, saline vehicle 81±3 sec)	Avg. bleeding time (tail vein bleeding; enoxaparin 4 μg/g, 4 hr pre, SC, HR 7-mer 12 μg/g, 1 hr pre)	susceptibility to heparanase mediated degradation (HPLC, LC-MS) (Recombinant heparanase)	anti-FXa activity after incubation with heparanase (Human FXa (Homo sapiens))
O=C(O)C1OC(OC2C(COS(=O)(=O)O)OC(OC3C(C(=O)O)OC(OC4C(COS(=O)(=O)O)OC(OC5C(C(=O)O)OC(OC6C(COS(=O)(=O)O)OC(OC7C(C(=O)O)OC(Oc8ccc([N+](=O)[O-])cc8)C(O)C7O)C(NS(=O)(=O)O)C6O)C(OS(=O)(=O)O)C5O)C(NS(=O)(=O)O)C4OS(=O)(=O)O)C(OS(=O)(=O)O)C3O)C(NS(=O)(=O)O)C2O)C(O)C(O)C1O (stereo not drawn) [HR 7-mer]	95.7 nM and 96 nM	3870 nM	40.3±3.9%	18.8 ± 1.2 mg	143 ± 18 s	143 ± 18 s	loss of GlcA	–
O=C(O)C1OC(Oc2ccc([N+](=O)[O-])cc2)C(O)C(O)C1OC1OC(COS(=O)(=O)O)C(OC2OC(C(=O)O)C(OC3OC(COS(=O)(=O)O)C(OC4OC(C(=O)O)C(OC5OC(COS(=O)(=O)O)C(O)C(O)C5NS(=O)(=O)O)C(O)C4OS(=O)(=O)O)C(OS(=O)(=O)O)C3NS(=O)(=O)O)C(O)C2OS(=O)(=O)O)C(O)C1NS(=O)(=O)O (stereo not drawn) [Compound 6-mer-D]	193 nM	–	–	–	–	–	–	preservation of anti-FXa activity
O=C(O)C1OC(OC2C(COS(=O)(=O)O)OC(OC3C(C(=O)O)OC(OC4C(COS(=O)(=O)O)OC(OC5C(C(=O)O)OC(Oc6ccc([N+](=O)[O-])cc6)C(O)C5O)C(NS(=O)(=O)O)C4O)C(OS(=O)(=O)O)C3O)C(NS(=O)(=O)O)C2OS(=O)(=O)O)C(O)C(O)C1OC1OC(COS(=O)(=O)O)C(O)C(O)C1NS(=O)(=O)O (stereo not drawn) [HS 6-mer, reference compound]	21.2 nM and 21 nM	–	–	–	–	–	cleavage of the -[GlcA-GlcNS3S6S]- disaccharide to afford a tetrasaccharide (4-mer-D)	completely lost
